In patent publication US9649297B2, “Treatment of ADHD” (Gosforth Centre (Holdings) Pty Ltd., priority 2007, dated 2017):
Counter-ions that a name gives are not always drawn.

What was measured:
[1] = system: epileptics and individuals with bipolar disorders; conditions: per day; usual minimum anti-convulsant dose; cited from earlier work
[2] = system: patients who had symptoms of ADHD; assay: Clinical study with anti-epileptic mood stabilisers alone in patients with symptoms of ADHD (Example 3); format: in vivo, human; conditions: for patient-reported improvements (self and other rating scales, clinical assessments): monotherapy without stimulant, topiramate 12.5-50 mg/day, Phenytoin 30-60 mg/day, valproate same dose range as combined treatment
Excerpt: The improvements assessed using self and other rating scales objective psychometric tool together with repeated clinical assessments.

[3] = system: ADHD patients
Procedure: A. Topiramate in Combination with Dexamphetamine (n=11)
The third trial clinical has been with phenytoin and a psychostimulant (n=8). Phenytoin is less often used for its psychoactive properties than either valproate or topiramate. […] The assessment methods were as per the trials with valproate and topiramate.
C. Phenytoin in Combination with Dexamphetamine (n=6)
E. Sodium Valproate in Combination with Methylphenidate (n=4) • Sodium Valproate: average 1.6 mg/kg/day (130 mg/day) • Methylphenidate: average 1.2 mg/kg/day (84 mg/day)

[4] = system: patients with a diagnosis of GAD; assay: Treatment of Generalised Anxiety Disorder (GAD) with low dose AED (Example 5); format: in vivo, human; conditions: 50 to 150 mg, without co-administration of a stimulant
Procedure: The diagnostic criteria cited for inclusion in this study included reference to excessive anxiety and worry which had been present for at least 6 months and which was difficult to control and associated with difficulty concentrating, becoming easily fatigued, restlessness or feeling keyed up or on edge and sleep disturbance. […] The medication was well tolerated with few side effects at the dose given. The improvement was evaluated using self and observer rating scales together with clinician review. As in the ADHD trials response usually commenced within 3-7 days. Due to the robust and persistent benefit, six months at the time of writing, many of the other psychotropic medications were reduced or even ceased.

[5] = system: adults with ADHD
Procedure: The initial dosages used were from 15 to 70 mg/day of dexamphetamine and from 100 to 700 mg/day of VPA (Epilim) (=approximately 2 to 10 mg/kg/day).
The determination of the dose for the dexamphetamine was undertaken in a clinical sensitive open label manner. The dose was titrated upwards dependent on the clinical response and the freedom from side-effects. The dose range was between 15 and 70 mg a day. The frequency of the dosing also varied dependent upon the clinical response. The usual dose interval was between two to four hours. This dosing adjustment took place prior to the commencement of the sodium valproate. The sodium valproate medication was initiated once a day at 50 mg tablet or elixir and titrated upwards dependent on response, but not more than one increase every three days. The dose was given as a once or twice a day regime. During the titration phase, if clinically possible, no other adjustments to the pharmacotherapy were undertaken.
The dosages of sodium valproate, after adjustment, varied between 50 mg/day, 100 mg/day, 150 mg/day or 200 mg/day (number of patients—120), with the majority of patients receiving between 50 to 150 mg/day with […] usually the maximum.
The results were assessed using the Conners Adult ADHD Rating scales completed by the patient and observer (usually partner or parent). In a sample of 26 patients who completed self CAARS rating scales at; pre treatment, stable on stimulant and stable on anti-epileptic drug (AED).

[6] = low dose sodium valproate with dexamphetamine

SMILES	Minimum Dose/day effective for mood stabilisation [1]	other results
CCC1(c2ccccc2)C(=O)NC(=O)NC1=O.CNC(C)CC1CCCCC1 [Barbexaclone]	200 mg in divided doses	–
NC(=O)N1c2ccccc2C=Cc2ccccc21 [Carbamazepine, (Z)-5H-dibenzo[b,f]azepine-5-carboxamide]	400 mg	–
CN1C(=O)CC(=O)N(c2ccccc2)c2cc(Cl)ccc21 [Clobazam]	5 mg/kg daily	–
O=C1CN=C(c2ccccc2Cl)c2cc([N+](=O)[O-])ccc2N1 [Clonazepam]	1 mg	–
CCN1C(=O)OC(C)(C)C1=O [Ethadione]	1000 mg	–
CCC1(C)CC(=O)NC1=O (centres unmarked) [Ethosuximide]	1000 mg	–
CCN1C(=O)NC(c2ccccc2)C1=O (centres unmarked) [Ethotoin, 3-ethyl-5-phenyl-imidazolidine-2,4-dione]	1000 mg	–
NC(=O)OCC(COC(N)=O)c1ccccc1 [Felbamate]	1200 mg	–
O=C1NC(c2ccccc2)(c2ccccc2)C(=O)N1COP(=O)(O)O [Fosphenytoin Sodium]	10 mg/kg	–
NCC1(CC(=O)O)CCCCC1 [Gabapentin, 2-[1-(aminomethyl)cyclohexyl]acetic acid]	900 mg	–
Nc1nnc(-c2cccc(Cl)c2Cl)c(N)n1 [Lamotrigine]	100 mg	–
CC[C@@H](C(N)=O)N1CCCC1=O [Levetiracetam]	1000 mg	–
COC1=CC(=O)OC1C(O)c1ccccc1Cl (centres unmarked) [Losigamone]	1500 mg	–
CCC1(c2ccccc2)NC(=O)N(C)C1=O (centres unmarked) [Mephenytoin]	200 mg	–
NC(=O)N1c2ccccc2CC(=O)c2ccccc21 [Oxcarbazepine, 10,11-Dihydro-10-oxo-5H-dibenz[b,f]azepine-5-carboxamide]	600 mg	–
CCC(C(=O)NC(N)=O)c1ccccc1 (centres unmarked) [Pheneturide]	600 mg	–
O=C1NC(=O)C(c2ccccc2)(c2ccccc2)N1 [Phenytoin, 5,5-diphenylimidazolidine-2,4-dione]	200 mg	patient-reported improvements (self and other rating scales, clinical assessments) [2]: improvements in the organisation of thoughts in conversation and reading comprehension; overall effect and tolerability ([3]; phenytoin at low dose with a psychostimulant, n=8): robust and well tolerated effect in eight patients
CC(C)C[C@H](CN)CC(=O)O [Pregabalin, (S)-3-(aminomethyl)-5-methylhexanoic acid]	300 mg	–
CCC1(c2ccccc2)C(=O)NCNC1=O [Primidone]	750 mg	–
NC(=O)c1cn(Cc2c(F)cccc2F)nn1 [Rufinamide]	400 mg	–
NS(=O)(=O)c1ccc(N2CCCCS2(=O)=O)cc1 [Sultiame]	200 mg	–
Cc1ccsc1C(=CCCN1CCC[C@H](C(=O)O)C1)c1sccc1C [Tiagabine Hydrochloride, (3S)-1-[4,4-bis(3-methylthiophen-2-yl)but-3-enyl]piperidine-3-carboxylic acid]	30 mg	–
CC1(C)O[C@@H]2[C@@H](CO[C@@]3(COS(N)(=O)=O)OC(C)(C)O[C@@H]23)O1 [Topiramate, 2,3:4,5-Bis-O-(1-methylethylidene)-beta-D-fructopyranose sulfamate]	100 mg	patient-reported improvements (self and other rating scales, clinical assessments) [2]: improvements in the organisation of thoughts in conversation and reading comprehension; effect on coordination, organisation and motivation ([2]; topiramate alone 12.5-50 mg/day): effect on coordination, as well as improved organisation and motivation; tolerability at initial titration ([3]; 25 mg increasing to 125 mg daily, with stimulant): intolerable side effects and ceasing of medication; Conners' Adult ADHD Rating scales (self and observer), DEM, clinician interview ([3]; re-titration commencing at 6.25 or 12.5 mg, with stimulant): significant improvements
C=CC(N)CCC(=O)O (centres unmarked) [Vigabatrin]	1000 mg	–
NS(=O)(=O)Cc1noc2ccccc12 [Zonisamide]	200 mg	–
CCCC(CCC)C(=O)O.[Na] [sodium valproate, sodium di-n-propylacetic acid]	–	function and symptoms in Generalised Anxiety Disorder [4]: sustained improvement in function and a reduction in symptoms; patient-reported improvements (self and other rating scales, clinical assessments) [2]: improvements in the organisation of thoughts in conversation and reading comprehension; psychosocial functioning (patient description, clinical review) ([5]; VPA added to dexamphetamine, dose below that for bipolar disorder): overall improvement in psychosocial functioning; adverse effect at higher dosages ([5]; in vivo): general cognitive and a resultant loss of efficacy; adverse effect at higher doses ([5]; in vivo): general cognitive slowing and the resultant loss of efficacy; oculomotor function, Developmental Eye Movement Test (DEM) [5, 6]: has shown improvement; reading and verbal comprehension abilities (patient report) [5, 6]: improvement in their reading and verbal comprehension abilities
